{"source": "patent US9162984B2", "about": "“Small-molecule modulators of melanin expression” (University of Rochester, priority 2007, dated 2015)", "assay_type_in_all_cases": "cell-based, mice", "key": {"[1]": {"tested_on": "melan-a murine melanocyte cell line", "test": "Melanin induction screening in melan-a melanocytes", "conditions": "for activity for inducing melanin production: initial screening, 2.5 μM, 3 days, melanin normalized to cell count, vs DMSO", "description": "(§1) The melan-a murine melanocyte cell line was chosen for library screening. This is a non-tumorogenic line of melanocytes derived from the skin of C57Bl/6J mice (Bennett et al., Int. J. Cancer 39:414 (1987), which is hereby incorporated by reference in its entirety). These cells are ideal for phenotypic melanin screening as they proliferate quickly, are highly differentiated, and have been extensively studied (Snyder et al., Chemistry & Biology 12(4):477 (2005), which is hereby incorporated by reference in its entirety). Melanocytes were cultured in RPMI 1640 media supplemented with 10% FBS and 0.2 μM TPA, at 37° C. under 5% CO2, 95% atmosphere. For screening, 1×10^5 melan-a melanocytes were plated in 24 well tissue culture plates in a volume of 2 ml. After 18 hr incubation, 1 ml of media was removed and replaced by 1 ml media doped with small molecule, forskolin positive control, or DMSO vehicle control for 3 days. Initial screening was performed at a 2.5 μM dose (0.01% DMSO). Cells were harvested by trypsinization, washed 2× with PBS (pH 7.2), and counted by hemocytometry. Cell counts were used to assess treatment effects on cell proliferation. Melanin production was quantified by lysing cell pellets in 800 μl of 1 M NaOH for 2 hrs on ice, vigorously resuspending the lysed material by pipette, reading the absorbance at 490 nm of 200 μl aliquots of total lysate, and referencing to a standard synthetic melanin (Sigma) curve. The 75 member library was screened in triplicate. Melanin production was normalized to cell count (A490/million cells) and fold change against DMSO was calculated (FIG. 2)."}, "[2]": {"tested_on": "melan-a murine melanocyte cell line", "test": "Cell counts by hemocytometry to assess treatment effects on cell proliferation", "description": "as §1, with “After 18 hr incubation, 1 ml of media was removed and replaced by 1 ml media doped with small molecule, forskolin positive control, or DMSO vehicle control for 3 days. Initial screening was performed at a 2.5 μM dose (0.01% DMSO).” left out, “Cell counts were used to assess treatment effects on cell proliferation.” left out, “The 75 member library was screened in triplicate.” left out"}, "[3]": {"tested_on": "melan-a melanocytes", "test": "Melanocyte dendricity by hematoxylin staining", "conditions": "2.5 μM, 72 hours; untreated 36%", "procedure": "Melanocytes are highly dendritic cells, and dendricity has been correlated with melanin production (Kosano et al., Biochim. Biophys. Acta 1499:11 (2000); Scott et al., J. Invest. Dermatol. 126:855 (2006), which are hereby incorporated by reference in their entirety). Dendricity was assessed by histochemical hematoxylin staining of melan-a melanocytes with and without 2.5 μM A7 treatment. 1×10^4 melan-a melanocytes were cultured onto vitrogen coated cover slips and treated with 2.5 μM A7 or vehicle control for 72 hours. Cells were fixed in 3.7% formalin/PBS, stained with hematoxylin, and imaged. Dendrites per cell were manually quantitated, and the percentage of cells with greater than 2 dendrites was calculated."}, "[4]": {"tested_on": "Tyrosinase", "test": "Tyrosinase activity assay (tritiated water from L-tyrosine-3,5-[3H]) in lysates of treated melanocytes", "conditions": "2.5 μM, 3 days; to a lesser degree than forskolin positive control", "description": "To further understand the mode of action for A7, tyrosinase activity was quantitated. Tyrosinase functions to hydroxylate tyrosine to dopaquinone and L-DOPA in the first step of melanin production (Ito, Pigment Cell Res. 16:230 (2003), which is hereby incorporated by reference in its entirety). As such, increased tyrosinase activity leads to increased melanin production. Tyrosinase activity can be measured by monitoring the production of tritiated water upon the hydroxylation of L-tyrosine-3,5-[^3H] to L-DOPA (Pomerantz, J. Biol. Chem. 241(1):161 (1966); Park et al., J. Biol. Chem. 268:11742 (1993), which are hereby incorporated by reference in their entirety).\nSimilarly to library screening, in quadruplet, melanocytes were cultured with and without 2.5 μM small molecule treatment for 3 days. Resulting cell pellets were lysed in 75 μl of 80 mM K2PO4, 1% CHAPS, 2 mM PMSF, and PICO2 protease inhibitor cocktail (CalBioChem) for 2 hours on ice. Lysates were then pelleted (10 minutes, 4° C., 10,000 rpm) and protein concentration was determined by Bradford assay. […] Aliqouts of 1.0 ml of the tritiated water containing supernatant were transferred to scintillation vials containing 5.0 ml scintillation fluid, and ^3H levels were counted. […]"}, "[5]": {"tested_on": "Tyrosinase", "test": "Western blot analysis of cellular tyrosinase levels", "conditions": "treated melanocytes"}}}
{"smiles": "O=C(NCCc1ccc(F)cc1)c1ccco1", "note": "[Compound C5, N-(4-fluorophenethyl)furan-2-carboxamide]", "values": [{"measurement": "activity for inducing melanin production", "setting": "[1]", "value": "some activity"}]}
{"smiles": "CC1(C)CCCC(C)(C)N1C(=O)c1ccco1", "note": "[Compound C10, (furan-2-yl)(2,2,6,6-tetramethylpiperidin-1-yl)methanone]", "values": [{"measurement": "activity for inducing melanin production", "setting": "[1]", "value": "some activity"}]}
{"smiles": "CC1(C)CCCC(C)(C)N1C(=O)c1c(F)c(F)c(F)c(F)c1F", "note": "[Compound D10, (2,2,6,6-tetramethylpiperidin-1-yl)(perfluorophenyl)methanone]", "values": [{"measurement": "activity for inducing melanin production", "setting": "[1]", "value": "some activity"}]}
{"smiles": "O=C(c1ccc2c(c1)OCO2)N1CCN(c2ccc(F)cc2)CC1", "note": "[Compound E4, (benzo[d][1,3]dioxol-5-yl)(4-(4-fluorophenyl)piperazin-1-yl)methanone]", "values": [{"measurement": "activity for inducing melanin production", "setting": "[1]", "value": "some activity"}]}
{"smiles": "CCCCNC(=O)c1ccco1", "note": "[Compound C2, N-butylfuran-2-carboxamide]", "values": [{"measurement": "activity for inducing melanin production", "setting": "[1]", "value": "some activity"}]}
{"smiles": "O=C(NCc1ccco1)c1ccco1", "note": "[Compound C1, N-((furan-2-yl)methyl)furan-2-carboxamide]", "values": [{"measurement": "activity for inducing melanin production", "setting": "[1]", "value": "some activity"}]}
{"smiles": "Cc1cc(NC(=O)c2c(F)c(F)c(F)c(F)c2F)no1", "note": "[Compound D12, 2,3,4,5,6-pentafluoro-N-(5-methylisoxazol-3-yl)benzamide]", "values": [{"measurement": "activity for inducing melanin production", "setting": "[1]", "value": "some activity"}]}
{"smiles": "CCc1nc2ccccc2cc1C(=O)NCCc1cccc(F)c1", "note": "[Compound A7, N-(3-fluorophenethyl)-2-ethylquinoline-3-carboxamide]", "values": [{"measurement": "concentration giving the optimal melanogenic response", "setting": "[1]; dose response, melanin quantity normalized to DMSO", "value": 2.5, "unit": "µM"}, {"measurement": "activity for inducing melanin production", "setting": "[1]", "value": "some activity"}, {"measurement": "ranking of melanin induction among hits", "setting": "[1]; subsequent analysis of library hits", "value": "most active hit"}, {"measurement": "effect on cell proliferation in dose response", "setting": "[2]; concentrations up to 5 μM", "value": "no significant effect on cell proliferation"}, {"measurement": "cytotoxic effects in cell culture", "setting": "[2]; melanocytes in culture", "value": "does not exhibit cytotoxic effects"}, {"measurement": "percentage of cells with greater than 2 dendrites", "setting": "[3]", "value": 69, "unit": "%"}, {"measurement": "tyrosinase activity in melanocyte culture", "setting": "[4]", "value": "increases tyrosinase activity"}, {"measurement": "cellular levels of tyrosinase", "setting": "[5]", "value": "not altered"}]}
{"smiles": "CCc1nc2ccccc2cc1C(=O)NCCc1ccc(F)cc1", "note": "[Compound A5, N-(4-fluorophenethyl)-2-ethylquinoline-3-carboxamide]", "values": [{"measurement": "activity for inducing melanin production", "setting": "[1]", "value": "some activity"}]}
{"smiles": "O=C(NCCc1cccc(F)c1)c1ccco1", "note": "[Compound C7, N-(3-fluorophenethyl)furan-2-carboxamide]", "values": [{"measurement": "activity for inducing melanin production", "setting": "[1]", "value": "some activity"}]}
